Experimental findings from patent US20030207819A1, “Compositions and methods for treating inflammatory connective tissue diseases” (priority 2002, published 2003) are described below.

Molecules are shown by their SMILES.

What all share (format): in vivo, human
Data set [1] relates to patient with undifferentiated connective tissue disease. Description: Example 6: clarithromycin trial, VAS and joint assessment. To be noted: person. From the text: A patient, was first seen in September 1999. […] They have used a number of anti-inflammatory agents frequently for therapy.
On the basis of the findings, including recurrent episodes of arthritis, Raynaud's, and thickening of the hands, connective tissue disease diagnoses such as Mixed Connective Tissue Disease or Progressive Systemic Sclerosis were considered.
Based on these findings, a diagnosis of Undifferentiated Connective Tissue Disease was made. Therapy was initiated with hydroxychloroquine ([…]®, Sanofi-Synthelabo, Inc.) and a non-steroidal anti-inflammatory agent. They utilized steroid dose packs periodically for symptomatic relief of their peripheral symptoms as well as their neck symptoms.
On examination, they had symptoms and findings much as before and a diagnosis of Undifferentiated Connective Tissue Disease was made. The patient agreed to undergo a trial with clarithromycin.
Following screening and baseline evaluations, the patient was begun on clarithromycin (BIAXIN®, Abbott Laboratories).
25, 2003 (“Visit 3”), for their first recheck visit.
When seen for their one month evaluation, the patient had been off steroid medication for approximately ten days.
Further assessment of their status was made on Apr. 13, 2003 at which time they were now off steroids for almost a one-month period.
Patient was again seen Apr. 21, 2003 (“Visit Four”), for their formal two-month follow-up on clarithromycin.

In data set [2] the test system is patient with low-grade connective tissue symptoms. Description: Example 5: clarithromycin study, VAS and joint assessment. As to conditions: person. The source says:
In 1991, it was elected to begin the patient on hydroxychloroquine ([…]®, Sanofi-Synthelabo, Inc.) given their low-grade connective tissue symptoms not responding to non-steroidal anti-inflammatory therapy. […] A trial of hydroxychloroquine was again initiated to see how they would tolerate it. […] Hydroxychloroquine was discontinued when they wanted to attempt getting pregnant again. Therapy most recently consisted of non-steroidal inflammatory agents and physical therapy.
On Feb. 27, 2003, the patient agreed to participate in the clarithromycin study. […] The patient was begun on clarithromycin (BIAXIN®, Abbott Laboratories) 500 mg twice per day.

Data set [3] relates to patient with undifferentiated connective tissue disease. The experiment in a line: Example 1: clinical observation of patient on clarithromycin. To be noted: person; switched from clarithromycin to azithromycin 500 mg day 1, 250 mg/day days 2 through 5. From the text: We elected to continue them on this antibiotic. […] Because the patient was on Lodine (NSAID) at the same time, we elected to see if they could stop the Lodine and still have relief of symptoms.

As to `CCN(CCO)CCCC(C)Nc1ccnc2cc(Cl)ccc12` (centres unmarked) [hydroxychloroquine], the symptomatic improvement result in data set [1] (hydroxychloroquine with a non-steroidal anti-inflammatory agent, approximately six months) is given as “did not feel significant improvement”. Besides, the “reason for discontinuation (adverse effect)” value in data set [2] (hydroxychloroquine begun 1991, approximately nine months) is reported as “weight loss”.
For the compound `CC1(C)S[C@@H]2[C@H](NC(=O)[C@H](N)c3ccc(O)cc3)C(=O)N2[C@H]1C(=O)O` [amoxicillin], the effect on pain result in data set [1] (amoxicillin tried on their own) is listed as “of no help”.
For the compound `CCN(CC)CCCC(C)Nc1c2ccc(Cl)cc2nc2ccc(OC)cc12` (centres unmarked) [quinacrine], in data set [2] (quinacrine approximately one year, non-toxic condition), the “reason for discontinuation (skin colour)” value is recorded as “too yellow”.
Regarding `CC[C@H]1OC(=O)[C@H](C)[C@@H](O[C@H]2C[C@@](C)(OC)[C@@H](O)[C@H](C)O2)[C@H](C)[C@@H](O[C@@H]2O[C@H](C)C[C@H](N(C)C)[C@H]2O)[C@](C)(O)C[C@@H](C)CN(C)[C@H](C)[C@@H](O)[C@]1(C)O` [azithromycin], the Symptoms result in data set [3] is “no increase in symptoms”.
